Assay results as given in US6699869B1, “β-sheet mimetics and use thereof as inhibitors of biologically active peptides or proteins” (Myriad Genetics Inc., priority 1995, dated 2004).

Key:
[1] = biological target: T1, human Factor VIIa (FVIIa) and human tissue factor (TF) (Homo sapiens, UniProt P08709); test: Factor VII assay, hydrolysis of structure (11b) as proteolytic substrate; assay type: biochemical; details: for kcat/KM (Factor VII): human FVIIa and TF, pH 8.0 Tris buffer, 37° C.
T1 construct: human Factor VIIa (FVIIa)
Description: (§1) Both the thrombin and Factor VII assays of this experiment were carried out at 37° C. using a Hitachi UV/Vis spectrophotometer (model U-3000). Structure (11b) was dissolved in deionized water. The concentration was determined from the absorbance at 342 nm. […] Initial velocities were calculated from the initial linear portion of the reaction progress curve. Kinetic parameters were determined by unweighted nonlinear least-squares fitting of the simple Michaelis-Menten equation to the experimental data using GraFit (Version 3.0, Erithacus Software Limited).
For the Factor VII assay, pH 8.0 Tris buffer (0.05 M Tris, 5 mM CaCl2, 0.15 M NaCl, 0.1% TWEEN 20, 0.1% BSA) was used. 10 μl of 20 μM human Factor VIIa (FVIIa) and 22 μM of human tissue factor (TF) was brought to assay buffer to make 160 nM FVIIa and TF solutions, respectively. […] The initial 3 minutes reaction progress curves were recorded. […] The kcat/KM was, calculated from the slope and found to be 17,500 M^−1 s^−1.

bovine thrombin = biological target: T2, bovine thrombin (Bos taurus, UniProt P00735); test: thrombin assay, hydrolysis of structure (11b) as proteolytic substrate; assay type: biochemical; details: for kcat/KM (thrombin): bovine thrombin, 37° C.
T2 construct: bovine thrombin (from Sigma); purchased Sigma
Description: as §1
For the thrombin assay, experiments were performed in pH 8.4 Tris buffer (Tris, 0.05M; NaCl, 0.15M). 6.4 NIH units of bovine thrombin (from Sigma) were dissolved into 10 ml of the assay buffer to yield 10 nM thrombin solution. […] The first two minutes of the reactions were recorded for initial velocity determination.

control plasma = test: prothrombin time (PT) in control plasma; details: compared with PPACK
Description: Then 200 μl of prewarmed (at 37° C. for ˜10 minutes) thromboplastin with calcium (from Sigma) was rapidly added into the plasma sample.

aPTT and TT = test: pharmacodynamic study in rats (aPTT and TT of plasma samples); assay type: in vivo, rat; details: male Sprague Dawley rats, 4 mg/kg IV and 10 mg/kg PO
Description: Specifically, a pharmacodynamic and pharmacokinetic study of structure (20b) was conducted in male Sprague Dawley rats. […] Groups of rats (n=3 or 4) were sacrificed and exsanguinated at 0.25, 0.5, 1, 2, 4 and 8 hours following dosing. Efficacy parameters, aPTT and TT; were measured for each plasma sample.

T1 sequence (P08709 213-466 limits assumed): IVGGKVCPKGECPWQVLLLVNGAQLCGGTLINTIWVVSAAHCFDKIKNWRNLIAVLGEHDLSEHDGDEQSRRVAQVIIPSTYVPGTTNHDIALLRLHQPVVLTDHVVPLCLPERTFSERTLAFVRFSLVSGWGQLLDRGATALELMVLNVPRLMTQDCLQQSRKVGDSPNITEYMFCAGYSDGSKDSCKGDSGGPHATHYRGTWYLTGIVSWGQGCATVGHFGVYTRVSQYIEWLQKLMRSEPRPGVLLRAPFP
T1 sequence (P08709 61-212 partner limits assumed): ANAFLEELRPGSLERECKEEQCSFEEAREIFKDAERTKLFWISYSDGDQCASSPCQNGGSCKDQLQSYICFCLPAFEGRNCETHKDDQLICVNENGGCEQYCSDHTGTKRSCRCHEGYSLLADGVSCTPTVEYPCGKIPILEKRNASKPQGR
T1 sequence (P13726 33-251 partner limits assumed): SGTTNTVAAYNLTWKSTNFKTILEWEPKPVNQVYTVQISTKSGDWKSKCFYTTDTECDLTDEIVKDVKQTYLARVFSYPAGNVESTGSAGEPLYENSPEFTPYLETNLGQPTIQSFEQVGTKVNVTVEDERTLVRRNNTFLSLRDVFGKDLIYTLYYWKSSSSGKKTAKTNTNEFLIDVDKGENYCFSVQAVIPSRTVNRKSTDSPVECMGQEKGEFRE

Row | SMILES | kcat/KM (Factor VII) [1] | kcat/KM (thrombin) (bovine thrombin) [M⁻¹ s⁻¹] | also measured
1 | NC(N)=NCCCC(NC(=O)C1CCCN1C(=O)C(N)Cc1ccccc1)C(=O)Nc1ccc([N+](=O)[O-])cc1 (centres unmarked) [(D)FPR-PNA, reference compound] | 12700 M⁻¹ s⁻¹ | 2.2e+07 | 
2 | N=C(N)NCCC[C@H](NC(=O)[C@@H]1CCN2CC[C@@](N)(Cc3ccccc3)C(=O)N12)C(=O)Nc1ccc([N+](=O)[O-])cc1 [Structure (11b)] | 17,500 M^−1 s^−1 | 1.67e+07 | Activity compared to the control (D)FPR-PNA, Factor VII ([1]; ratio of kcat/KM to control): 1.38; Activity compared to the control (D)FPR-PNA, thrombin (bovine thrombin; ratio of kcat/KM to control): 0.76
3 | N=C(N)NCCC[C@H](NC(=O)[C@@H]1CCN2CC[C@@](N)(Cc3ccccc3)C(=O)N12)C(=O)CCl [Structure (13b)] |  |  | time required to form clot (PT), in words (control plasma): comparable with PPACK
4 | N=C(N)NCCC[C@H](NC(=O)[C@@H]1CCN2CC[C@@](N)(Cc3ccccc3)C(=O)N12)C(=O)c1nc2ccccc2s1 [Structure (20b)] |  |  | in vivo efficacy (aPTT and TT) (aPTT and TT): in vivo efficacy
